Experiments:
[1] = biological target: T1, b-Raf (V600E) (Homo sapiens, UniProt P15056, V600E); assay: In vitro Raf activity determination (Alpha Screen, biotinylated kinase-dead MEK1 substrate), B-Raf; assay type: biochemical; conditions: b-Raf (V600E) approximately 4 pM; ATP 10 μM; pre-incubation 60 minutes; reaction 3 hours at room temperature
T1 construct: made in house
Procedure, shortened: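 IC50 from non-linear regression of AlphaScreen phospho-MEK signal (anti-p-MEK1/2 antibody). b-Raf(V600E), about 4 pM, phosphorylated ~10 nM biotinylated K97R MEK1 with 10 μM ATP for 3 h at room temperature after 60 min compound pre-incubation; buffer pH 7.5 Tris, 15 mM MgCl2, 1 mM DTT.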

[2] = biological target: T2, C-RAF (Homo sapiens, UniProt P04049, Y340E/Y341E); assay: In vitro Raf activity determination (Alpha Screen, biotinylated kinase-dead MEK1 substrate), C-Raf; assay type: biochemical; conditions: c-Raf approximately 4 nM; ATP 1 μM; pre-incubation 60 minutes; reaction 1 hour at room temperature
T2 construct: His tag (implied by nickel chromatography) (cleaved yes); StrepII tag (cleaved yes); made in house; host or cells: Sf9 insect cells (baculovirus), CRAF and h14-3-3 zeta co-expressed; MEK1 substrate from E. coli
Procedure, shortened: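 AlphaScreen read-out of MEK phosphorylation using an anti-phospho-MEK1/2 antibody after a 1 hour room-temperature reaction at 1 μM ATP. Enzyme: approximately 4 nM Sf9-expressed full-length activated C-Raf (Y340E/Y341E, with 14-3-3ζ) on approximately 10 nM biotinylated K97R MEK1, after 60 min compound preincubation. IC50 by non-linear fit.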

T2 sequence (P04049 whole entry Y340E/Y341E): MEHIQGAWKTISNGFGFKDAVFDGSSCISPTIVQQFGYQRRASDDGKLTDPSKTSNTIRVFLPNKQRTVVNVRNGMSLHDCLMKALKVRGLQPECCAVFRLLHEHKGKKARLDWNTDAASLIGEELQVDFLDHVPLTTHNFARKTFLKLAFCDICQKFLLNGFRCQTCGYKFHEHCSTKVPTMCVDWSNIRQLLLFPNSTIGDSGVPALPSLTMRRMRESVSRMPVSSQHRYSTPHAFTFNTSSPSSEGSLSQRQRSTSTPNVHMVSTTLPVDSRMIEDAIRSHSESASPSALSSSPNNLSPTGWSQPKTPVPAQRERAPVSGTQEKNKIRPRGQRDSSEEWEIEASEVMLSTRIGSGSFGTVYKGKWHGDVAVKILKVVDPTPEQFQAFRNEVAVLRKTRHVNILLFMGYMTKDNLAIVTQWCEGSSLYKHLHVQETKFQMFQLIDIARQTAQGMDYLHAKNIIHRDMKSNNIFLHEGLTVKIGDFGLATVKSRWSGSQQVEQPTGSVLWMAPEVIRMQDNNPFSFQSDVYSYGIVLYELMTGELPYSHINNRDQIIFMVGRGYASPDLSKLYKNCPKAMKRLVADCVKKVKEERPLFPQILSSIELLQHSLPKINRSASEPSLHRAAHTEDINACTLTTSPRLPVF
T2 sequence (P63104 whole entry partner): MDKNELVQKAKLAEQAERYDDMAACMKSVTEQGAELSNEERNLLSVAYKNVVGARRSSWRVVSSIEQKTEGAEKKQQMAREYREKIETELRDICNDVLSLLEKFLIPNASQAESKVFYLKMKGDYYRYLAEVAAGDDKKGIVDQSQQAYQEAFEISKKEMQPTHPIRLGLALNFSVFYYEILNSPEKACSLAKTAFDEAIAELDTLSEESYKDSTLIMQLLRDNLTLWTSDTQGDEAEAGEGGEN
T1 sequence (P15056 whole entry V600E): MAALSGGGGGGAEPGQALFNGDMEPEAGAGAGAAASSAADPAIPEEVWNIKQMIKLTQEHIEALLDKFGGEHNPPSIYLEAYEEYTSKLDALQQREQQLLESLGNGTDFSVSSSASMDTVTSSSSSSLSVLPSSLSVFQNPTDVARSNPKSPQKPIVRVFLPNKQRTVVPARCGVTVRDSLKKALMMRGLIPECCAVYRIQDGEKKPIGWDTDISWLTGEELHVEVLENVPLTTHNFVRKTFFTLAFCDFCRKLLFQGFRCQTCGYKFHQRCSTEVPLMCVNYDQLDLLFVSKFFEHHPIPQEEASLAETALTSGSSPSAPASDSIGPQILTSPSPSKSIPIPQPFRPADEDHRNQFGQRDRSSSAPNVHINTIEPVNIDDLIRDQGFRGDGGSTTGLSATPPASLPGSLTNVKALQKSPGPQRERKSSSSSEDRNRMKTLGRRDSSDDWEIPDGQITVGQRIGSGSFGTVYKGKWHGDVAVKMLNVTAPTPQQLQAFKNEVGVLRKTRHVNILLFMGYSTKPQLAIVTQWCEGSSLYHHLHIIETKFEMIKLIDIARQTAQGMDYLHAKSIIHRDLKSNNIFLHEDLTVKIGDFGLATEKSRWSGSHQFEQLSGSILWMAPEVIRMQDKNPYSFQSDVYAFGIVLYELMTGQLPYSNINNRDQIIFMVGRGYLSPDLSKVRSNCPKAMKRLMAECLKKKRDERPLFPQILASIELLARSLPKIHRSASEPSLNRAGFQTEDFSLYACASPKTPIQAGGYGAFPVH

SMILES	IC50 [1]	IC50 [2]
Cc1ccc(NC(=O)c2ccccc2)cc1-c1cncc(C#N)c1 [Example 149, N-(3-(5-cyanopyridin-3-yl)-4-methylphenyl) benzamide]	15100 nM	2370 nM
Cc1ccc(NC(=O)c2ccnc(C(C)C)c2)cc1-c1cnc(N2CCNCC2)c(C#N)c1 [Example 150, N-(3-(5-cyano-6-(piperazin-1-yl)pyridin-3-yl)-4-methylphenyl)-2-isopropyl-isonicotinamide]	0.591 nM	0.158 nM
Cc1ccc(NC(=O)c2ccnc(C(C)(C)C#N)c2)cc1-c1cnc(N2CCNCC2)c(C#N)c1 [Example 151, N-(3-(5-cyano-6-(piperazin-1-yl)pyridin-3-yl)-4-methylphenyl)-2-(2-cyanopropan-2-yl)isonicotinamide]	1.41 nM	0.353 nM
Cc1ccc(NC(=O)c2ccnc(S(C)(=O)=O)c2)cc1-c1cnc(N2CCNCC2)c(C#N)c1 [Example 152, N-(3-(5-cyano-6-(piperazin-1-yl)pyridin-3-yl)-4-methylphenyl)-2-(methylsulfonyl) isonicotinamide]	5.68 nM	0.702 nM
Cc1ccc(NC(=O)c2ccnc(C(F)(F)F)c2)cc1-c1cnc(N2CCNCC2)c(C#N)c1 [Example 153, N-(3-(5-cyano-6-(piperazin-1-yl)pyridin-3-yl)-4-methylphenyl)-2-(trifluoromethyl) isonicotinamide]	0.7 nM	0.15 nM
Cc1ccc(NC(=O)c2ccnc(C(F)F)c2)cc1-c1cnc(N2CCOCC2)c(C#N)c1 [Example 154, N-(3-(5-cyano-6-morpholinopyridin-3-yl)-4-methylphenyl)-2-(difluoromethyl) isonicotinamide]	0.342 nM	0.0675 nM
Cc1ccc(NC(=O)c2ccnc(C3CC3)c2)cc1-c1cnc(N2CCOCC2)c(C#N)c1 [Example 155, N-(3-(5-cyano-6-morpholinopyridin-3-yl)-4-methylphenyl)-2-cyclopropyl-isonicotinamide]	0.263 nM	0.0395 nM
Cc1ccc(NC(=O)c2ccnc(S(C)(=O)=O)c2)cc1-c1cnc(N2CCOCC2)c(C#N)c1 [Example 156, N-(3-(5-cyano-6-morpholinopyridin-3-yl)-4-methylphenyl)-2-(methylsulfonyl) isonicotinamide]	0.35 nM	0.0597 nM
Cc1ccc(NC(=O)c2cccc(S(C)(=O)=O)c2)cc1-c1cnc(N2CCOCC2)c(C#N)c1 [Example 157, N-(3-(5-cyano-6-morpholinopyridin-3-yl)-4-methylphenyl)-(methylsulfonyl) benzamide]	0.304 nM	0.0559 nM
Cc1ccc(NC(=O)c2ccnc(C3CC3)c2)cc1-c1cnc(N2CCNCC2)c(C#N)c1 [Example 158, N-(3-(5-cyano-6-(piperazin-1-yl)pyridin-3-yl)-4-methylphenyl)-2-cyclopropyl isonicotinamide]	1.09 nM	0.199 nM
Cc1ccc(NC(=O)c2cccc(S(C)(=O)=O)c2)cc1-c1cnc(N2CCNCC2)c(C#N)c1 [Example 159, N-(3-(5-cyano-6-(piperazin-1-yl)pyridin-3-yl)-4-methylphenyl)-3-(methylsulfonyl) benzamide]	1.49 nM	0.197 nM
Cc1ccc(NC(=O)c2ccnc(C(F)F)c2)cc1-c1cnc(N2CCNCC2)c(C#N)c1 [Example 160, N-(3-(5-cyano-6-(piperazin-1-yl)pyridin-3-yl)-4-methylphenyl)-2-(difluoromethyl) isonicotinamide]	1.59 nM	0.157 nM
Cc1ccc(NC(=O)c2ccnc(C(C)(F)F)c2)cc1-c1cnc(N2CCNCC2)c(C#N)c1 [Example 161, N-(3-(5-cyano-6-(piperazin-1-yl)pyridin-3-yl)-4-methylphenyl)-2-(1,1-difluoroethyl) isonicotinamide]	0.577 nM	0.153 nM
